Data reported in patent US6699682B2, “Assay for inhibitors of fatty-acid amide hydrolase” (The Scripps Research Institute, priority 1995, dated 2004).

Legend:
[1] = system: rats; assay: effect on spontaneous behavior of rats after ip injection (induction of sleep); assay type: in vivo, rat
Experimental: Synthetic cis-9,10-octadecenoamide was injected (ip) into rats in order to test its effect on spontaneous behavior at different doses: 1 (n=2), 2 (n=2), 5 (n=7), 10 (n=10), 20 (n=2), and 50 (n=2) mg, where n = number of rats tested. […] However, at a threshold of 5 mg and above there was a marked effect consisting of an induction of long-lasting motor quiescence associated with eyes closed, sedated behavior characteristic of normal sleep. Also as with normal sleep, the rats still responded to auditory stimuli with orienting reflex and sustained attention toward the source of stimulation. In addition, motor behavior was impaired. The latency to behavioral sedation following administration was about 4 minutes and subjects were normally active again after 1 hour (5 mg), 2 hour (10 mg), or 2.5 hour (20 mg and 50 mg).
We have compared cis-9,10-octadecenoamide to vehicle and the synthetic analogs listed in FIG. 1 to estimate the structural specificity of its sleep-inducing potential. […] More particularly, male Sprague-Dawley rats (300 g at the time of surgery) were implanted under halothane anesthesia (2-3%) with a standard set of electrodes for sleep recordings. This included two screw electrodes placed in the parietal bone over the hippocampus to record the subjects electroencephalogram (EEG) and two wire electrodes inserted in the neck musculature to record postural tone through electromyographic activity (EMG). Rats were housed individually with at libitum access to food and water. The dark-light cycle was controlled (12:12, lights on a 10:00 p.m.). One week after the surgery, rats were habituated to the recording conditions for at least three days. Upon the completion of the habituation period, rats received 2 milliliter (ip) of either: vehicle (5% ethanol/saline solution), cis-9,10-octadecenoamide (10 mg), or oleic acid (10 mg). […] Sleep recordings were visually scored and four stages were determined: wakefulness, slow-wave-sleep 1 (SWS1), slow-wave-sleep 2 (SWS2), and rapid eye movement (REM) sleep.

[2] = target: T1, recombinant rat FAAH (Rattus norvegicus, UniProt P97612); assay: oleamide hydrolase activity of rat FAAH-transfected COS-7 cell extract and its inhibition (TLC); assay type: biochemical; settings: versus untransfected and control transfected cells
T1 construct: expressed in transfected cells; host or cells: COS-7 cells, transient, pcDNA3; dounce-homogenised cell extract
T1 sequence (P97612 1-579): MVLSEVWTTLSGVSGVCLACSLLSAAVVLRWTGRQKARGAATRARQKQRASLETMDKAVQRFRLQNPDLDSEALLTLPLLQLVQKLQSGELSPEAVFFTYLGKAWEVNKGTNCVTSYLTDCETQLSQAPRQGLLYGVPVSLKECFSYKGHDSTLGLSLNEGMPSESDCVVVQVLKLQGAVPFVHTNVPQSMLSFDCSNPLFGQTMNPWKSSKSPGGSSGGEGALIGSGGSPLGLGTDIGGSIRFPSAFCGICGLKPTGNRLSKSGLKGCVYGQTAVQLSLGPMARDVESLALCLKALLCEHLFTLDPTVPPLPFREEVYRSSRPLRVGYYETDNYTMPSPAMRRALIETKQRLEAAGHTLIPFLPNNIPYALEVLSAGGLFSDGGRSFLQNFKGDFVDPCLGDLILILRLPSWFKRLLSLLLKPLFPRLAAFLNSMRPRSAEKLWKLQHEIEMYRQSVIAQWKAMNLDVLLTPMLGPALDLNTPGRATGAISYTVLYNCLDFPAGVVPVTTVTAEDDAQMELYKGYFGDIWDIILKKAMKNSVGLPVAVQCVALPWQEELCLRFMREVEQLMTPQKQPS
Experimental: The following thin layer chromatography (TLC) protocol is used for assaying cis-9,10 octadecenoamide hydrolysis activity, also referred to as fatty-acid amide hydrolase activity. Oleamide is first labeled with ^14C. To accomplish this, ^14C-Oleic acid (1-10 μM, Moravek Biochemicals, 5-50 μCi/μM) in CH2CL2 (200 μL, 0.005-0.05 M) at 0° C. was treated with excess oxalyl chloride and the reaction mixture was warmed to 25° C. for 6 hours. The reaction mixture was then concentrated under a constant stream of gaseous nitrogen and the remaining residue was cooled to 0° C. and treated with excess saturated aqueous ammonium hydroxide. After 5 minutes, the reaction mixture was partitioned between Et)Ac (1.5 mL) and 10% HCl (1.0 mL). The organic layer was then washed with water (1.0 mL) and concentrated under a constant stream of gaseous nitrogen to provide ^14C-oleamide in quantitative yield as judged by TLC (60% EtOAc in hexanes; oleamide Rf−0.2; oleic acid Rf−0.8). […]
While untransfected COS-7 cells contained negligible amounts of oleamide hydrolase activity, COS-7 cells transfected with the rat FAAH cDNA expressed high levels of oleamide hydrolase activity (FIG. 15A). The assay was performed as described in Section B where by TLC the conversion of oleamide to oleic acid was assessed. […]

SMILES: CCCCCCCC/C=C\CCCCCCCC(N)=O [cis-9,10-octadecenoamide, Cis-9,10-octadecenoamide]
- duration of the biological (sleep-inducing) effect ([1]; 10 mg per rat): two hours
- threshold dose for induction of long-lasting motor quiescence with eyes closed, sedated behavior ([1]; rats, ip): 5 mg
- effect on spontaneous behavior ([1]; rats, ip, lower doses 1 and 2 mg): no overt effect on spontaneous behavior
- conversion of labeled substrate by rat FAAH-transfected COS-7 cells (qualitative, TLC) [2]: effective at converting labeled oleamide to oleic acid
